Source: DBAASP
Values after ≈ are worked out from the molar mass of the structure shown. Each block holds one compound with its values, some of them ahead of it.

Tests used:
Test in all cases: ≥ marks a high value that may be exact or a test limit, other limits are often not marked, values filed in µg/mL are converted to µM
[1] = test system: Staphylococcus aureus ATCC 25923
[2] = test system: Escherichia coli ATCC 25922
[3] = test system: Pseudomonas aeruginosa ATCC 9027
[4] = test system: Candida albicans ATCC 10231
[5] = test system: Enterococcus faecalis PCM 2673
Bacillus megaterium = test system: Bacillus megaterium
[6] = test system: Pseudomonas aeruginosa CMCCB 10104
[7] = test system: Candida albicans ATCC 2002
Shigella dysenteriae = test system: Shigella dysenteriae
Klebsiella pneumoniae = test system: Klebsiella pneumoniae
[8] = test system: Staphylococcus aureus ATCC 2592
[9] = test system: Candida albicans ATCC 24433
[10] = test system: Staphylococcus epidermidis ATCC 12228
[11] = test system: Listeria monocytogenes EGD
[12] = test system: Pseudomonas aeruginosa ATCC 27853
[13] = test system: Trichophyton rubrum ATCC 28189
[14] = test system: Candida albicans ATCC 90028
Staphylococcus aureus = test system: Staphylococcus aureus
Escherichia coli = test system: Escherichia coli
[15] = test system: Candida parapsilosis ATCC 22019
[16] = test system: Salmonella enterica subsp. enterica serovar Typhimurium ATCC 14028
[17] = test system: Bacillus subtilis CMCC 63501
[18] = test system: Enterococcus faecalis ATCC 29212
[19] = test system: Salmonella enterica subsp. enterica serovar Pullorum C79-13
[20] = test system: Staphylococcus aureus ATCC 29213
Escherichia coli UB1005 = test system: Escherichia coli UB1005

SMILES: CC[C@H](C)[C@H](NC(=O)[C@H](CCCCN)NC(=O)[C@H](CCCCN)NC(=O)[C@@H](NC(=O)[C@@H](NC(=O)[C@H](CC(=O)O)NC(=O)[C@H](Cc1ccccc1)NC(=O)[C@H](CC(C)C)NC(=O)[C@H](C)N)[C@@H](C)CC)[C@@H](C)CC)C(=O)N[C@@H](C)C(=O)N[C@@H](CCC(=O)O)C(=O)N[C@@H](CO)C(=O)N[C@@H](Cc1ccccc1)C(N)=O [ALFDIIKKIAESF]
MIC [1]: 343 µM (≈ 512 µg/mL)
MIC [2]: 85.6 µM (≈ 128 µg/mL)
MIC [3]: 343 µM (≈ 512 µg/mL)
MIC [4]: 85.6 µM (≈ 128 µg/mL)
MIC [5]: ≥ 85.6 µM

SMILES: CC[C@H](C)[C@H](N=C(O)CN)C(O)=NCC(O)=N[C@H](C(O)=N[C@@H](CCCCN)C(O)=N[C@H](C(O)=N[C@@H](CC(C)C)C(O)=NCC(O)=NCC(O)=N[C@H](C(O)=N[C@@H](CCCCN)C(O)=N[C@H](C(O)=N[C@@H](C)C(O)=N[C@@H](CC(C)C)C(O)=N[C@@H](CCCCN)C(O)=NCC(O)=N[C@@H](C)C(O)=N[C@@H](CC(C)C)C(O)=N[C@@H](CCCCN)C(O)=N[C@@H](CCC(=O)O)C(O)=N[C@@H](CC(C)C)C(O)=N[C@@H](C)C(O)=N[C@@H](CO)C(O)=N[C@H](C(O)=N[C@@H](Cc1ccc(O)cc1)C(O)=N[C@@H](C)C(O)=N[C@@H](CC(=N)O)C(=N)O)[C@@H](C)O)[C@@H](C)O)C(C)C)[C@@H](C)CC)[C@@H](C)O [GIGTKILGGVKTALKGALKELASTYAN]
MIC [2]: 7.29 µM (≈ 19.5 µg/mL)
MIC (Bacillus megaterium): 7.29 µM (≈ 19.5 µg/mL)
MIC [6]: 7.29 µM (≈ 19.5 µg/mL)
MIC [7]: 1.12 µM (≈ 3 µg/mL)
MIC (Shigella dysenteriae): 1.01 µM (≈ 2.7 µg/mL)
MIC (Klebsiella pneumoniae): 3.36 µM (≈ 9 µg/mL)
MIC [8]: 7.29 µM (≈ 19.5 µg/mL)

SMILES: CC[C@H](C)[C@H](NC(=O)[C@H](C)NC(=O)[C@H](CCCCN)NC(=O)[C@@H](NC(=O)[C@@H](NC(=O)[C@H](CC(=O)O)NC(=O)[C@H](Cc1ccccc1)NC(=O)[C@H](CC(C)C)NC(=O)CN)[C@@H](C)CC)[C@@H](C)CC)C(=O)N[C@@H](C)C(=O)N[C@@H](CCC(=O)O)C(=O)N[C@@H](CO)C(=O)N[C@@H](Cc1ccccc1)C(N)=O [GLFDIIKAIAESF]
MIC [1]: > 360 µM
MIC [2]: 89.9 µM (≈ 128 µg/mL)
MIC [3]: > 360 µM
MIC [4]: 45 µM (≈ 64 µg/mL)
MIC [5]: ≥ 45 µM

SMILES: CC(C)C[C@H](NC(=O)CNC(=O)CNC(=O)CNC(=O)[C@H](C)NC(=O)[C@H](CC(C)C)NC(=O)[C@H](CC(N)=O)NC(=O)CNC(=O)[C@H](CC(C)C)NC(=O)[C@H](CC(C)C)NC(=O)CNC(=O)[C@@H](NC(=O)[C@@H](NC(=O)[C@H](CO)NC(=O)[C@H](CC(N)=O)NC(=O)[C@H](CC(C)C)NC(=O)[C@H](CC(C)C)NC(=O)CNC(=O)[C@H](CO)NC(=O)[C@@H](NC(=O)[C@H](CC(C)C)NC(=O)CN)C(C)C)C(C)C)[C@@H](C)O)C(=O)O [GLVSGLLNSVTGLLGNLAGGGL]
MIC [9]: ≥ 100 µM
MIC [2]: > 100 µM
MIC [10]: > 100 µM

SMILES: CC[C@H](C)[C@H](NC(=O)[C@H](C)NC(=O)[C@@H](NC(=O)[C@@H](NC(=O)[C@@H](NC(=O)CNC(=O)[C@H](CCCCN)NC(=O)[C@H](CCCCN)NC(=O)CNC(=O)[C@@H](N)CCCCN)C(C)C)[C@@H](C)CC)[C@@H](C)CC)C(=O)N[C@@H](CC(C)C)C(=O)N[C@@H](CC(C)C)C(=O)N[C@@H](Cc1ccccc1)C(=O)N[C@@H](C)C(=O)N[C@H](C(=O)N[C@H](C(=O)N[C@@H](Cc1ccc(O)cc1)C(=O)N[C@@H](CCCCN)C(=O)N[C@@H](CCCCN)C(=O)N[C@@H](CCCCN)C(N)=O)[C@@H](C)CC)[C@@H](C)CC [KGKKGVIIAILLFAIIYKKK]
MIC [1]: 128 µM (≈ 287 µg/mL)
MIC [2]: 128 µM (≈ 287 µg/mL)
MIC [11]: ≥ 128 µM
MIC [12]: 128 µM (≈ 287 µg/mL)

SMILES: CC[C@H](C)[C@H](NC(=O)[C@H](C)NC(=O)[C@H](CCCCN)NC(=O)[C@@H](NC(=O)[C@H](CC(C)C)NC(=O)[C@H](C)NC(=O)CNC(=O)[C@@H](NC(=O)[C@H](CCCCN)NC(=O)[C@H](Cc1ccccc1)NC(=O)[C@H](Cc1ccc(O)cc1)NC(=O)[C@H](CCCCN)NC(=O)[C@H](CCCCN)NC(=O)[C@H](CC(C)C)NC(=O)[C@@H](NC(=O)CNC(=O)[C@@H](NC(=O)[C@@H](N)CCCCN)[C@@H](C)CC)C(C)C)[C@@H](C)CC)[C@@H](C)CC)C(=O)N[C@H](C(=O)N[C@@H](CCCCN)C(N)=O)[C@@H](C)CC [KIGVLKKYFKIGALIKAIIK]
MIC [1]: 8 µM (≈ 18 µg/mL)
MIC [2]: 8 µM (≈ 18 µg/mL)
MIC [11]: 1 µM (≈ 2.24 µg/mL)
MIC [12]: 2 µM (≈ 4.49 µg/mL)

SMILES: CC[C@H](C)[C@H](NC(=O)[C@H](CC(C)C)NC(=O)[C@H](CC(=O)O)NC(=O)[C@H](CO)NC(=O)[C@H](CCCN=C(N)N)NC(=O)[C@@H](N)CO)C(=O)N[C@H](C(=O)N[C@@H](Cc1cnc[nH]1)C(=O)N[C@@H](CCC(N)=O)C(=O)N[C@@H](CCCN=C(N)N)C(=O)N[C@@H](CC(C)C)C(=O)N[C@@H](Cc1ccccc1)C(N)=O)C(C)C [SRSDLIVHQRLF]
MIC [9]: ≥ 272 µM
MIC [13]: ≥ 272 µM
MIC (Staphylococcus aureus): > 272 µM
MIC (Escherichia coli): > 272 µM
MIC [15]: ≥ 272 µM

Continued, values first:

MIC [1]: 4 µM (≈ 9.02 µg/mL)
MIC [13]: ≥ 32 µM
MIC [14]: 8 µM (≈ 18 µg/mL)
MIC [10]: 5.33 µM (≈ 12 µg/mL)
SMILES: CC[C@H](C)[C@H](NC(=O)[C@H](Cc1ccc(O)cc1)NC(=O)[C@H](CC(N)=O)NC(=O)[C@H](CC(N)=O)NC(=O)[C@H](Cc1ccccc1)NC(=O)[C@@H](N)CC(C)C)C(=O)N[C@H](C(=O)N[C@@H](C)C(=O)N[C@@H](C)C(=O)N[C@@H](CC(C)C)C(=O)N[C@@H](CCCCN)C(=O)N[C@@H](CC(C)C)C(=O)N[C@@H](CC(C)C)C(=O)N[C@@H](CCC(=O)O)C(=O)N[C@@H](CCCCN)C(=O)N[C@@H](CC(C)C)C(=O)N[C@@H](Cc1ccc(O)cc1)C(=O)N[C@@H](CCCCN)C(=O)N[C@H](C(N)=O)C(C)C)[C@@H](C)O [LFNNYITAALKLLEKLYKV]

MIC [9]: ≥ 267 µM
MIC [13]: ≥ 267 µM
MIC (Staphylococcus aureus): > 267 µM
MIC (Escherichia coli): > 267 µM
MIC [15]: ≥ 267 µM
SMILES: CC[C@H](C)[C@H](NC(=O)[C@H](CCCCN)NC(=O)[C@H](CCC(=O)O)NC(=O)[C@H](CO)NC(=O)[C@H](CCCN=C(N)N)NC(=O)[C@@H](N)CO)C(=O)N[C@H](C(=O)N[C@@H](Cc1cnc[nH]1)C(=O)N[C@@H](CCC(N)=O)C(=O)N[C@@H](CCCN=C(N)N)C(=O)N[C@@H](CC(C)C)C(=O)N[C@@H](Cc1ccccc1)C(N)=O)C(C)C [SRSEKIVHQRLF]

MIC [16]: 32 µM (≈ 45.7 µg/mL)
MIC [17]: 8 µM (≈ 11.4 µg/mL)
MIC [18]: 32 µM (≈ 45.7 µg/mL)
MIC [2]: 8 µM (≈ 11.4 µg/mL)
MIC [19]: 8 µM (≈ 11.4 µg/mL)
MIC [20]: 32 µM (≈ 45.7 µg/mL)
MIC [12]: 32 µM (≈ 45.7 µg/mL)
MIC [10]: 32 µM (≈ 45.7 µg/mL)
MIC (Escherichia coli UB1005): 8 µM (≈ 11.4 µg/mL)
SMILES: CC[C@H](C)[C@H](NC(=O)[C@H](CCCCN)NC(=O)[C@H](C)NC(=O)[C@H](C)NC(=O)[C@H](C)NC(=O)[C@H](CCCCN)NC(=O)[C@H](C)NC(=O)[C@H](C)NC(=O)[C@H](C)NC(=O)[C@H](CCCCN)NC(=O)[C@@H](NC(=O)[C@@H](N)Cc1c[nH]c2ccccc12)[C@@H](C)CC)C(=O)N[C@@H](Cc1c[nH]c2ccccc12)C(N)=O [WIKAAAKAAAKIW]
